{"source": "patent US9498436B2", "about": "“Testosterone solutions for the treatment of testosterone deficiency” (INNOTESTO BVBA, priority 2010, dated 2016)", "test": "Testosterone serum level after oromucosal (buccal) administration of testosterone solution, chemiluminescent-immunoassay", "settings": "for mean increase of the testosterone level per 500 μg T: 30 minutes after buccal administration; for increase per 100 μg T / increase per 500 μg T: buccal solution; for concentration at 30 min: increase of testosterone serum level, 30 minutes post dose, volunteer, baseline 10-15 nmol/L", "experimental": "Devices used in the experimental oromucosal application of the solutions of the invention were glass bottles with a spray device from Valois, type VP7, allowing the administration of volumes of 25 μL, 50 μL and 100 μL\nBlood samples were taken and analysed for testosterone serum levels using a chemiluminescent-immunoassay (Access Beckman Coulter).\n• Testosterone levels were measured 30 minutes after buccal administration of the testosterone solution by a spray pump with a spray volume of 25 μl, 50 μl or 100 μl. • Oromucosal (buccal,sublingual) testosterone solutions administered were in 17 cases a solution in water containing as main constituents testosterone and RAMEB and in 7 cases testosterone in a solution containing as main excipient isopropyl myristate.", "key": {"[1]": {"settings": "dose 125 μg T, 30 minutes after administration"}, "[2]": {"settings": "dose 300 μg T, 30 minutes after administration"}, "[3]": {"settings": "dose 375 μg T, 30 minutes after administration, separate applications"}, "[4]": {"settings": "dose 400 μg T, 30 minutes after administration, separate applications"}, "[5]": {"settings": "dose 570 μg T, 30 minutes after administration, separate applications"}, "[6]": {"settings": "dose 1000 μg T, 30 minutes after administration"}, "[7]": {"settings": "dose 1150 μg T, 30 minutes after administration"}, "[8]": {"settings": "mean of 24 buccal applications (17 aqueous, 7 non-aqueous), 30 minutes after administration"}, "[9]": {"settings": "oromucosal, general statement in description"}}, "note": "Where “and” joins values, the source holds several entries; their conditions need not be identical. Equal entries are not always repeated."}
{"smiles": "C[C@]12CC[C@H]3[C@@H](CCC4=CC(=O)CC[C@@]43C)[C@@H]1CC[C@@H]2O", "note": "[testosterone]", "values": [{"measurement": "testosterone (T) serum level", "setting": "Volunteer M, sample M3, 10.00 am, aqueous solution 500 μg T at 7.30 am, 375 μg T at 9.30 and 11.30 am", "result": 25.45, "unit": "nmol/L"}, {"measurement": "testosterone (T) serum level", "setting": "Volunteer M, sample M4, 12.00 am, aqueous solution 500 μg T at 7.30 am, 375 μg T at 9.30 and 11.30 am", "result": 18.81, "unit": "nmol/L"}, {"measurement": "mean increase of the testosterone level per 500 μg T", "setting": "aqueous formulations (testosterone and RAMEB, ethanol 15% v/v), 17 cases", "result": 15.2, "unit": "nmol/L"}, {"measurement": "increase per 100 μg T", "setting": "[1]", "result": 2.7, "unit": "nmol/L"}, {"measurement": "increase per 500 μg T", "setting": "[1]", "result": 14, "unit": "nmol/L"}, {"measurement": "increase per 100 μg T", "setting": "[2]", "result": 4.2, "unit": "nmol/L"}, {"measurement": "increase per 500 μg T", "setting": "[2]", "result": 21, "unit": "nmol/L"}, {"measurement": "increase per 100 μg T", "setting": "[3]", "result": "4.3 nmol/L and 2.4 nmol/L"}, {"measurement": "increase per 500 μg T", "setting": "[3]", "result": "22 nmol/L and 12 nmol/L"}, {"measurement": "increase per 100 μg T", "setting": "[4]", "result": "3.0 nmol/L and 2.0 nmol/L"}, {"measurement": "increase per 500 μg T", "setting": "[4]", "result": "15 nmol/L and 10 nmol/L"}, {"measurement": "increase per 100 μg T", "setting": "[5]", "result": "4.0 nmol/L and 4.4 nmol/L"}, {"measurement": "increase per 500 μg T", "setting": "[5]", "result": "20 nmol/L and 22 nmol/L"}, {"measurement": "increase per 100 μg T", "setting": "[6]", "result": 3.8, "unit": "nmol/L"}, {"measurement": "increase per 500 μg T", "setting": "[6]", "result": 19, "unit": "nmol/L"}, {"measurement": "increase per 100 μg T", "setting": "[7]", "result": 3.1, "unit": "nmol/L"}, {"measurement": "increase per 500 μg T", "setting": "[7]", "result": 16, "unit": "nmol/L"}, {"measurement": "concentration at 30 min", "setting": "human, serum, other: buccal (oromucosal spray), 400 μg, non-aqueous solution, 50 μL=400 μg testosterone buccally", "result": 18, "unit": "nM"}, {"measurement": "concentration at 30 min", "setting": "human, serum, other: buccal (oromucosal spray), 500 μg, aqueous solution, 100 μL (=500 μg testosterone) buccally", "result": 20, "unit": "nM"}, {"measurement": "concentration at 30 min", "setting": "human, serum, other: buccal (oromucosal spray), 800 μg, non-aqueous solution, 100 μL=800 μg testosterone buccally", "result": 36, "unit": "nM"}, {"measurement": "concentration at 30 min", "setting": "human, serum, other: buccal (oromucosal spray), 1000 μg, aqueous solution, 2×100 μL (=1000 μg testosterone) buccally", "result": 38, "unit": "nM"}, {"measurement": "concentration at 0 h", "setting": "human, serum, other: buccal (oromucosal spray), testosterone (T) serum level, Volunteer D, sample D1, 7.30 am (time of first dose), aqueous solution 500 μg T at 7.30, 9.30, 11.30 am", "result": 11.9, "unit": "nM"}, {"measurement": "concentration at 0.5 h", "setting": "human, serum, other: buccal (oromucosal) solution, spray, 500 μg, testosterone (T) serum level, Volunteer D, sample D2, 8.00 am, aqueous solution 500 μg T at 7.30, 9.30, 11.30 am", "result": 18.6, "unit": "nM"}, {"measurement": "concentration at 2.5 h", "setting": "human, serum, other: buccal (oromucosal) solution, spray, 500 μg, testosterone (T) serum level, Volunteer D, sample D3, 10.00 am, aqueous solution 500 μg T at 7.30, 9.30, 11.30 am", "result": 28.1, "unit": "nM"}, {"measurement": "concentration at […]", "setting": "human, serum, other: buccal (oromucosal) solution, spray, 500 μg, testosterone (T) serum level, Volunteer D, sample D4, 12.00 am, aqueous solution 500 μg T at 7.30, 9.30, 11.30 am", "result": 28.7, "unit": "nM"}, {"measurement": "concentration at 0 h", "setting": "human, serum, other: buccal (oromucosal) solution, spray, 500 μg, testosterone (T) serum level, Volunteer M, sample M1, 7.30 am (time of first dose), aqueous solution 500 μg T at 7.30 am, 375 μg T at 9.30 and 11.30 am", "result": 8.72, "unit": "nM"}, {"measurement": "concentration at 0.5 h", "setting": "human, serum, other: buccal (oromucosal) solution, spray, 500 μg, testosterone (T) serum level, Volunteer M, sample M2, 8.00 am, aqueous solution 500 μg T at 7.30 am, 375 μg T at 9.30 and 11.30 am", "result": 25.5, "unit": "nM"}, {"measurement": "mean (SD) increase per 100 μg T", "setting": "[8]", "result": "3.1 nmol/L and 3.1(0.9) nmol/L"}, {"measurement": "mean (SD) increase per 500 μg T", "setting": "[8]", "result": "15.7 nmol/L and 15.7(4.6) nmol/L"}, {"measurement": "mean increase of the testosterone level per 500 μg T", "setting": "non-aqueous formulations (isopropyl myristate, ethanol 15% v/v), 7 cases", "result": 16.7, "unit": "nmol/L"}, {"measurement": "mean increase in testosterone serum level for each 0.1 mg testosterone dose administered", "setting": "[9]", "result": "about 3 nmol/L"}, {"measurement": "mean increase in testosterone serum level for each 0.5 mg testosterone dose administered", "setting": "[9]", "result": "about 15 nmol/L"}]}
